Results reported in patent publication US20100324150A1, “HYPERBRANCHED POLYGLYCEROL FOR IMPROVING HEART FUNCTION” (THE UNIVERSITY OF BRITISH COLUMBIA, priority 2007, published 2010).

Legend:
H9C2 cells = experiment: Lactate production by H9C2 cells; type: cell-based, rat; conditions: for Lactate concentration / production in H9C2 cells (in words): relative to control
Description: H9C2 (2-1) embryonic rat heart cells (passage 12, obtained from American Type Culture Collection, Manassas, Va.) were cultured in Dulbecco's modified Eagle's medium (DMEM—Gibco-Invitrogen) containing 10% fetal bovine serum (FBS) and 100 U/ml penicillin-streptomycin at 37° C. in a humidified atmosphere containing 5% CO2. The cells were subcultured into 60 mm culture dishes when 80% confluent (before fusion into myotubes occurred) and were differentiated toward a cardiac phenotype by exposure to DMEM containing 1% horse serum and 0.1 μM all-trans retinoic acid (Sigma) for four days (Menard et al 1999. J Biol Chem 274:29063-70; Bronstrom et al 2000. Int J. Biochem Cell Biol 32:993-1006). Retinoic acid was prepared in the dark in DMSO and stored at −20° C. The concentration of DMSO in the culture media was less than 0.2%. Media was changed daily.
To screen for metabolic actions of dHPGs, H9C2 cells were exposed to a range of dHPG concentration (0.001 to 100 μM). Studies were conducted over six hours in serum-free Krebs-Henseleit (KH) solution (118 mM NaCl, 4.7 mM KCl, 1.2 mM KH2PO4, 1.2 mM MgSO4, 2.0 mM CaCl2, 25 mM NaHCO3, 0.4 mM Na2CO3) containing 0.4 mM palmitate (bound to fatty-acid free albumin), 5.5 mM glucose and 20 mU/L insulin. Aliquots of media (60 μl) were taken at 3 and 6 hours. Viability of cells was assessed by visual inspection of cell morphology using a microscope and by assessment of mitochondrial integrity (MTS—Promega). Accumulation of lactate in the bathing solution over 6 hrs was measured using a diagnostic kit (Sigma, St. Louis, Mo.). Lactate accumulation was expressed as μmol/mg protein. Protein content of the cultures was determined using a commercial Bicinchoninic Acid (BCA) protein assay kit from Sigma (St. Louis, Mo.). Pharmacological agents used as controls included Dicholoracetate (DCA), which directly stimulates glucose oxidation by activating pyruvate dehydrogenase and causes a reduction in lactate.
A variety of dHPG polymers were administered to H9C2 cells in culture and the lactate production analyzed (Tables 2, 3; FIGS. 1a, b). […] Concentration range data (0.0001 to 250.0 uM), as well as controls (dichloroacetate-7.5 mM, DCA-BDH), a group exposed to oxfenicine (2 mM, OXF-Fluka), and a group exposed to oligomycin (2.0 μM, Oligo-Sigma).

[1] = system: isolated working rat hearts; experiment: Isolated working rat hearts, normoxic non-ischemic perfusion
Description: Hearts from halothane (3-4%)-anesthetized male Sprague-Dawley rats were isolated and perfused as working preparations with Krebs-Henseleit (KH) solution at a left atrial preload of 11.5 mmHg and an aortic afterload of 80 mmHg in a closed recirculating system with oxygenated (95% O2-5% CO2) Krebs-Henseleit (KH) solution maintained at 37° C., as described (Burelle et al 2004. Am J Physiol Heart Circ Physiol 287:H1055-63; Allard et al 1994. Am J Physiol 267:H742-H750; Saeedi et al 2006. BMC Cardiovasc Disord 6:8). A first series of hearts was perfused with KH solution containing 0.6 or 1.2 mM [1-^14C]- or [9,10-^3H]-palmitate, prebound to fatty acid-free albumin (3%), together with 5.5 mM glucose, 0.5 mM lactate, and 20 mU/l insulin in order to measure rates of palmitate oxidation. A second series of hearts was perfused with KH solution containing 0.6 or 1.2 mM palmitate, 5.5 mM [5-^3H/U-^14C]-glucose, 0.5 mM lactate, and 20 mU/l insulin in order to measure glycolysis and glucose oxidation. Concentrations of insulin and substrates reflect values seen under physiologic and pathophysiologic conditions. […]
Heart rate and systolic pressure may be measured using a pressure transducer (Viggo-Spectramed, Oxnard, Calif.) inserted in the afterload line of the isolated heart. Cardiac output and aortic flow may be measured via external flow probes (Transonic Systems, Ithaca, N.Y.) on the left atrial preload and aortic afterload lines, respectively. External work performed by the heart is expressed as, “rate-pressure product”, the product of heart rate and peak systolic pressure, and “hydraulic work”, the product of cardiac output and peak systolic pressure. […]
Isolated, working rat hearts were exposed to 10 μM dHPG-85K-G71.4-C181.9-PEG26.7(RKK-108) and studied under normoxic, non-ischemic conditions. During normoxic, non-ischemic perfusion, RKK108 improves heart function (rate-pressure assessment—beats per minute×mmHg/1000) by about 10 to about 15% (FIG. 2), When heart function is assessed by hydraulic work an improvement of about 20% is also observed.

Row | SMILES | Lactate Production by H9C2 Cells (H9C2 cells; 7.5 mM) [% Control] | Lactate Production by H9C2 Cells (H9C2 cells; 2 μM) [% Control] | Lactate concentration / production in H9C2 cells (in words) (H9C2 cells) | Lactate Production by H9C2 Cells (H9C2 cells; 2 mM) [% Control] | Glycolysis [1] | Glucose oxidation ([1]; RKK108 10 μM) | Palmitate oxidation ([1]; RKK108 10 μM)
1 | O=C(O)C(Cl)Cl [DCA, dichloroacetate] | 63 ± 5 | – | – | – | – | – | –
2 | CC[C@H]1/C=C/C=C/C[C@@H](C)[C@H](O)[C@@](C)(O)C(=O)[C@@H](C)[C@H](O)[C@@H](C)C(=O)[C@@H](C)[C@H](O)[C@@H](C)/C=C/C(=O)O[C@@H]2[C@H](C)[C@H](CC1)O[C@]1(CC[C@H](C)[C@H](C[C@@H](C)O)O1)[C@H]2C [Oligomycin] | – | 226 ± 10 | increase in lactate concentration, greater than that of OXF-treated samples | – | – | – | –
3 | N[C@H](C(=O)O)c1ccc(O)cc1 [Oxfenicine] | – | – | increase in lactate | 130 ± 7 | accelerates both glucose oxidation and glycolysis | accelerates both glucose oxidation and glycolysis | reduces palmitate oxidation
